{"source": "patent US8759579B2", "about": "“Cyclobutyl sulfones as notch sparing gamma secretase inhibitors” (Merck Sharp & Dohme Corp., priority 2008, dated 2014)", "key": {"[1]": {"assay": "covalent protein binding assay with liver microsomes", "format": "in vitro ADME", "details": "radiolabeled compound incubated with human liver microsomes", "description": "MRK-560 and Example 2 were tested in a covalent protein binding assay which is predictive of drug toxicity. The potential of drug candidates to cause covalent binding to proteins is evaluated by incubation of the radiolabeled version of the compound in question with liver microsomes. A semi-automated method based on Brandel Harvester technique is then used to measure the formation of covalent adducts of the test compound to liver proteins binding (Ref. Day et. al, J Pharmacol Toxicol Methods. 52, 278-85, 2005)."}, "[2]": {"molecular_target": "T1, pregnane X receptor (PXR) (Homo sapiens, UniProt O75469)", "T1 construct": "expressed in transfected cells; host or cells: HEP G2", "T1 sequence (O75469 1-434)": "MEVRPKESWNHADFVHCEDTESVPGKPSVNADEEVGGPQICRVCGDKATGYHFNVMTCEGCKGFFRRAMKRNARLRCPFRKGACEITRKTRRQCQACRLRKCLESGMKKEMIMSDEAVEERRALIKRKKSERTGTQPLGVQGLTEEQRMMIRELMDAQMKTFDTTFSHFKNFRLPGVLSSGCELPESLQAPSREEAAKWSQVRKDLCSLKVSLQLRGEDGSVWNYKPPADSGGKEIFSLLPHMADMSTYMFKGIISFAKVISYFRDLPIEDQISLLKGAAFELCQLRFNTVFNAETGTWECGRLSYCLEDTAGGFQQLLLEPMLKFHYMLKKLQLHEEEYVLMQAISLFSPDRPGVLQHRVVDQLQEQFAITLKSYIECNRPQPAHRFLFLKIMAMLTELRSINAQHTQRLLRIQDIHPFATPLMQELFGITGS", "T1 sequence (P19793 1-462 partner)": "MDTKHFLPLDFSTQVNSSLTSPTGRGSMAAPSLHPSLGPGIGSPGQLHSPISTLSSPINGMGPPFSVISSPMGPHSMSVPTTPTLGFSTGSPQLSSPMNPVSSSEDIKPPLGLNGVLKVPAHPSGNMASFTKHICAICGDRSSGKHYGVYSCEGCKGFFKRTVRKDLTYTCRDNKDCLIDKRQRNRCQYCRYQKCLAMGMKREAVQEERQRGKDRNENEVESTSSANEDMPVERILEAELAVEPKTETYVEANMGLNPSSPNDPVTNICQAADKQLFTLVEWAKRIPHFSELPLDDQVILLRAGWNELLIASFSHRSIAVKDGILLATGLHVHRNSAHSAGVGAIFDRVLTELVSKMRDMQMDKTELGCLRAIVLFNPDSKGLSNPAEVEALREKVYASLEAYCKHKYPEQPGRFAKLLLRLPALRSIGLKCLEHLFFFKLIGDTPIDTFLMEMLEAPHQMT", "assay": "PXR assay (CYP3A4-SEAP transactivation assay, PCSTA)", "format": "cell-based", "details": "HEP G2 cells", "description": "The CYP3A4-SEAP transactivation assay (PCSTA) effectively and rapidly evaluates compounds for their potential to induce cytochrome P450 CYP3A (human CYP3A4 or rat CYP3A1). The reporter construct contains regulatory regions from the CYP3A4 gene positioned just upstream of a secreted alkaline phosphatase (SEAP) gene. The human PXR nuclear receptor has been modified at the 5′-end so that methionine is the initiating amino acid replacing leucine found in the wild-type sequence. HEP G2 cells are transfected with the PXR plasmid (human or rat) and the reporter plasmid. Read-out for the induction of CYP3A4 consists of a SEAP calorimetric assay with para-nitro-phenyl phosphate (pNPP) as the substrate. Five point dose-response curves in duplicate are then generated with each point corresponding to the rate of conversion of pNPP to pNP by SEAP. For the human PCSTA, rifampicin is used as the positive control and 100% induction is based upon the maximum induction produced by rifampicin at 10 μM."}, "[3]": {"test_system": "ε/S3-site cleavage of γ-secretase substrates (APP-GVP, NotchΔE-GVP, E-cadherin-GVP, CD44-GVP)", "assay": "ICD transactivation assay (intracellular domain release of γ-secretase substrates)", "format": "cell-based", "details": "HEK cells, 1 μM, 48 hours", "description": "ICD Transactivation (Assay Quantitates Intracellular Domain Release of a Panel of γ-Secretase Substrates in Cell Lines)\nA Firefly luciferase based transactivation assay is used to measure inhibition of ε/S3-site cleavage of γ-secretase substrates. This assay involves the use of chimeric substrates harboring a GAL4/VP16 (GVP) transactivation domain fused to the intracellular domain (ICD): APP-GVP, NotchΔE-GVP, E-cadherin-GVP and CD44-GVP. Upon cleavage and release of ICDs, the GVP domain drives the expression of the luciferase gene under the control of the UAS promoter. In this assay, HEK cells were transiently co-transfected with the chimeric substrate along with a UAS promoter driven luciferase and β-galactosidase (transfection control). Upon cleavage by γ-secretase, the released ICD-GVP translocates to the nucleus to drive the expression of the UAS-luciferase gene. The activity of luciferase in these cells is directly proportional to the amount of γ-secretase-cleaved ICDs. Luciferase activity is determined by the standard techniques of luciferin addition to lysed cells and measurement of total luminescence. In addition, to account for the differences in transfection efficiencies an absorbance based β-galactosidase enzyme assay is performed to normalize the luminescence read-out."}, "[4]": {"test_system": "γ-secretase substrates NotchΔE, E-cadherin, SCN2b and CD43 in HEK293 cells", "assay": "Full length γ-secretase substrates, immunoblot of cell lysates", "format": "cell-based", "details": "titrated concentrations with TPA", "description": "Assessing Full Length γ-Secretase Substrates (Assay Qualitatively Assesses the Processing of a Panel of γ-Secretase Substrates)\nCells are plated and treated overnight with titrated compound and the phorbol ester, TPA. Since all of the proteins undergo regulated membrane proteolysis characterized by an initial ectodomain shedding event followed by the intramembraneous cleavage of the […] fragment (CTF) by γ-secretase, TPA induces the initial cleavage event producing the substrate for γ-secretase. The effect of compounds on γ-secretase activity in relation to these substrates is measured by tracking the processing of the V5 tagged CTFs by Western blot analysis. Accumulation of the CTFs indicates inhibition of γ-secretase activity."}, "γ-secretase complex": {"test_system": "γ-secretase complex", "assay": "Compound binding assay (displacement of tritiated γ-secretase inhibitor tracers)", "details": "semi-purified γ-secretase complex, increasing concentrations", "description": "Compound Binding: (Assay Quantitates In Vitro Displacement of Bound γ-Secretase Inhibitor Tracers)\nAll radioligand binding experiments are performed using CHAPSO-solubilized HEK293 (gammaNRCF8) P2 membranes stably over expressing recombinant gamma secretase. For radioligand binding, solubilized enzyme is incubated in the presence of tritiated inhibitors. Nonspecific binding is determined by adding an excess of unlabeled inhibitor to the reaction, and serial dilutions of the tritiated ligands are used to obtain saturation binding isotherm. Bound ligand is separated from free ligand by adsorption of the enzyme complex to polyethyleneimine-coated glass fiber filter plates and rapid filtration in a cell harvester followed by washing. After drying plates, scintillant is added, and the plates are read on a Microplate Scintillation counter. Binding competition assay is performed by incubating serial dilutions of various inhibitors in the presence of 1 nM ^3H-labeled compound Reference Example L-458 (transition state inhibitor) or 4 nM ^3H-labeled compound Reference Example L-881 (non-transition state inhibitor). To determine the antagonist competitiveness of various inhibitors, respective ^3H tracer doss-response curves are analyzed in presence of different concentrations of these compounds."}, "[5]": {"test_system": "APP and Notch processing pathway", "details": "literature report; cited from earlier work"}, "Tg2576 mouse": {"test_system": "Tg2576 mouse", "details": "cited from earlier work"}}, "note": "Entries after “also recorded” stand apart in the source; their conditions may differ."}
{"molecule": "O=S(=O)(NC1CCC(c2cc(F)ccc2F)(S(=O)(=O)c2ccc(Cl)cc2)CC1)C(F)(F)F", "note": "(stereo not shown) [MRK-560]", "values": [{"measurement": "covalent protein binding (human microsomes)", "setting": "[1]", "result": 1308, "unit": "pmol/mg"}, {"measurement": "EC50", "setting": "[2]", "result": 617, "unit": "nM"}, {"measurement": "ICD release of γ-secretase substrates (ε/S3-cleavage)", "setting": "[3]", "result": "inhibited ICD release of all examined substrates"}, {"measurement": "accumulation of CTFs (immunoblot)", "setting": "[4]; HEK293 cells overexpressing E-cadherin, SCN2b, CD43", "result": "caused accumulation of CTFs; also recorded: SCN2b-, ECAD- and CD43-CTF accumulation"}, {"measurement": "NICD generation (immunoblot)", "setting": "[4]; HEK293 cells overexpressing NotchΔE", "result": "inhibited NICD generation"}, {"measurement": "displacement of tritiated tracer L-458 (transition state)", "setting": "γ-secretase complex", "result": "partial"}, {"measurement": "displacement of tritiated tracer L-881 (non transition state)", "setting": "γ-secretase complex", "result": "full"}, {"measurement": "separation between in vitro inhibition of APP and Notch processing pathway", "setting": "[5]", "result": "little or no separation"}, {"measurement": "effects on amyloid plaque deposition", "setting": "Tg2576 mouse", "result": "beneficial effects on amyloid plaque deposition"}, {"measurement": "toxicity related to changes in the Notch signaling pathway", "setting": "Tg2576 mouse", "result": "absence of toxicity"}]}
